Measured values published in publication PMC9328652, “A novel class of fast‐acting antimalarial agents: Substituted 15‐membered azalides” (British Journal of Pharmacology, 2020).
In brackets after ≈: the same amount, converted by molar mass. Like-named read-outs stand apart in the source and are kept apart here.

Legend:
[1] = system: Plasmodium falciparum K1 (CQ,PY); experiment: [3H]hypoxanthine incorporation antimalarial assay, strain K1; type: cell-based; details: K1, 72 h, read-out: IC50 K1 (CQ,PY)
Description: (§1) The activity of the test compounds against P. falciparum in vitro was determined using the tritiated hypoxanthine incorporation assay of Desjardins et al. and additionally modified by Milhous and Chulay (Chulay, Haynes, & Diggs, [1983]; Milhous, Weatherly, Bowdre, & Desjardins, [1985]).
(§2) Compounds were dissolved in DMSO and subsequently diluted in the culture medium (RPMI 1640) supplemented with 10% v/v human plasma. Serial 1:2 drug dilutions were prepared in triplicate in microtitre plates. Culture medium supplemented with 10% v/v human plasma and type A Rhesus positive human erythrocytes infected with P. falciparum strains was added to yield a haematocrit of 3% and a parasitaemia of 0.25–0.55%. The plates were incubated at 37°C in a modular incubator flushed with a mixture of 5% oxygen, 3% carbon dioxide, and 92% nitrogen for 48 h, and then [^3H]hypoxanthine was added to give a final concentration of 12.5–16 μCi·ml^−1. After incubation for additional 24 h, particulate matter was harvested on fibreglass strips and hypoxanthine incorporation determined by scintillation spectrophotometry. […] Delayed death experiments were performed by this standard method but extending the incubation time with the drug up to 96 h.

[2] = system: Plasmodium falciparum FCR3 (CQ,AT); experiment: [3H]hypoxanthine incorporation antimalarial assay, strain FCR3; type: cell-based; details: FCR3, 72 h, read-out: IC50 FCR3 (CQ,AT)
Description: as §1, §2

[3] = system: Plasmodium falciparum Dd2 (CQ,Q,PY,S); experiment: microbe, parasite or virus in culture; type: cell-based; details: for IC50: Plasmodium falciparum
Description: as §1, §2

[4] = system: Plasmodium falciparum V1/S (CQ,PY); experiment: microbe, parasite or virus in culture; type: cell-based; details: 72 h, read-out: IC50 V1/S (CQ,PY)
Description: as §1, §2

[5] = system: Plasmodium falciparum T9/94 (CQ); experiment: [3H]hypoxanthine incorporation antimalarial assay, strain T9/94; type: cell-based; details: 72 h, read-out: IC50 T9/94 (CQ)
Description: as §1, §2

[6] = system: Plasmodium falciparum 7G8 (CQ, PY); experiment: [3H]hypoxanthine incorporation antimalarial assay, strain 7G8; type: cell-based; details: 7G8, 72 h, read-out: IC50 7G8 (CQ, PY)
Description: as §1, §2

[7] = system: haem polymerization; experiment: Cell-free haem polymerization assay; type: biochemical; details: for IC50: cell‐free, N = 2
Description: Experiments were performed according to Tripathi, Khan, Walker, and […] ([2004]). Briefly, a solution of sodium acetate containing mono-oleoyl glycol and the corresponding inhibitor at different concentrations is placed in 1.5-ml reaction tubes. […] Multiple washing steps with Tris/SDS and bicarbonate, to remove monomeric haem and haem aggregates, allow quantification of de novo formed β-haematin.

[8] = Pharmacokinetics in P. falciparum infected and uninfected humanized mice; details: oral 10 mg·kg^−1, mean (SD); for Cmax / Tmax: NODscidβ2m^−/−, mouse, in vivo, po, 10 mg/kg; for Cmax: C max, blood; for Tmax: t max
Description: For pharmacokinetic (PK) studies in mice, animals were dosed either by intravenous (i.v.) or oral (p.o.) route.
(§3) For studies performed in Swiss albino CD‐1 mice (Harlan Laboratories, Spain), in order to obtain simultaneous blood and plasma profiles and blood‐to‐plasma (B/P) ratio, PK was performed using terminal sampling of N = 3 animals per time point and data evaluated using composite analysis. For studies performed in P. falciparum infected and non‐infected NODscidβ2m^−/− mice (Charles River Laboratories, France), only whole blood was obtained by serial sampling of N = 3 animals using tail puncture.
(§4) For analysis of whole blood samples, 25 μl of fresh blood were mixed with 25 μl of saponin solution (0.1% in water) and immediately frozen on dry ice. Plasma was obtained by centrifugation of fresh blood at 2,500 g for 10 min. Both blood and plasma samples were stored frozen at −80°C until analysis.
(§5) Diluted blood and plasma samples were processed under standard liquid–liquid extraction procedures using acetonitrile containing internal standard (clarithromycin, 100 ng·ml^−1) and analysed by LC–MS/MS in positive ion mode with electrospray. Samples were assayed for parent compound using a Sciex API 4000 and Sciex API‐2000 Triple Quadrupole Mass Spectrometer (Sciex, Division of MDS Inc., Toronto, Canada), against a series of matrix matched calibration curve standards, using multiple reaction monitoring (MRM) at the specific transitions for each compound. Non‐compartmental analysis was performed using WinNonlin, version 4.1 (Pharsight, Mountain View, CA), and the main pharmacokinetic parameters were estimated.

[9] = system: P. falciparum 3D7^0087/N9; experiment: P. falciparum murine model (humanized mice), 4-day test; type: in vivo, Plasmodium falciparum
Description: The in vivo efficacy evaluation of the compounds was performed using a P. falciparum murine model of malaria in non‐myelodepleted NOD. Cg‐Prkdc^ scid –β2m^ tm1Unc ‐scid IL2R_null (NODscidβ2m^−/−) mice engrafted with human erythrocytes as described previously (Angulo‐Barturen et al., [2008]; Jimenez‐Diaz et al., [2005]; Jimenez‐Diaz et al., [2009]; Jimenez‐Diaz et al., [2009]), as this model enables testing of P. falciparum strains with high infectious burden. Briefly, groups of three mice engrafted with human erythrocytes were infected with 20 × 10^6 of P. falciparum 3D7^0087/N9‐infected erythrocytes/mouse by intravenous route. The mice were randomly assigned to their corresponding experimental groups. The treatment of oral doses QD for 4 days started at day 3 after infection. Parasitaemia was measured at days 3, 5, and 7 post‐infection. The therapeutic efficacy was expressed as the dose (mg·kg^−1) that reduced parasitaemia in peripheral blood of mice at day 7 after infection by 90% (ED90) with respect to vehicle‐treated mice. Chloroquine was included as quality control for each in vivo assay. Efficacy is expressed as the daily dose (ED90), or equivalent exposure (AUCED90), administered to mice necessary to reduce parasitaemia at day 7 by 90% with respect to vehicle‐treated mice. The ED90 is estimated by fitting a four‐decade logistic equation for the log10 [parasitaemia at day 7] versus the log10 [dose] using GraphPad Prism 5.01 (GraphPad Software Inc., San Diego, CA).

[10] = system: Plasmodium falciparum 3D7A (sensitive); parameters: method as in Pesic et al. ([2012]); details: 72 h of incubation; ref Pesic et al. ([2012]); cited from earlier work
[11] = system: Plasmodium falciparum W2 (chloroquine/pyrimethamine resistant); parameters: method as in Pesic et al. ([2012]); details: 72 h of incubation; ref Pesic et al. ([2012]); cited from earlier work
[12] = system: Plasmodium falciparum 3D7A (sensitive); experiment: [3H]hypoxanthine incorporation antimalarial assay, strain 3D7A; type: cell-based; details: 72 h of incubation, N = 3
Description: as §1, §2

[13] = system: Plasmodium falciparum W2 (chloroquine/pyrimethamine resistant); experiment: [3H]hypoxanthine incorporation antimalarial assay, strain W2; type: cell-based; details: W2, 72 h, read-out: Plasmodium falciparum IC50 W2
Description: as §1, §2

[14] = system: Plasmodium falciparum Dd2(AZ^R); experiment: [3H]hypoxanthine incorporation antimalarial assay, azithromycin-resistant mutant Dd2(AZ^R); type: cell-based
Description: as §1, §2

[15] = system: HepG2 cells; experiment: Cytotoxicity assay (MTS); type: cell-based, human; details: 24 h, N = 2
Description: The detailed protocol for cytotoxicity measurement is described elsewhere (Verbanac et al., [2005]). In brief, HepG2 cells were maintained in complete RPMI 1640 medium supplemented with 10% FBS at 37°C in a 5% CO2 atmosphere. Each culture in the 96‐well plates contained 50,000 cells which were exposed to serial dilutions (1:2) of compounds initially dissolved in DMSO and subsequently diluted in supplemented RPMI 1640 medium. Compounds were tested in duplicates, and plates were incubated for 24 h at 37°C in 5% CO2. The cytotoxicity assay was performed using the MTS CellTiter 96 AQueous One Solution Cell Proliferation Assay (Promega, USA). After the addition of MTS reagent and 2 h of incubation at 37°C in 5% CO2, the absorbance at 490 nm was recorded and Tox50 determined based on the obtained response curves.

[16] = system: H. influenzae ATCC49247; experiment: Antibacterial screen, broth microdilution; type: cell-based; details: Haemophilus influenzae
Description: (§6) Antibacterial activity of compounds was determined by a standard broth microdilution method (Clinical Laboratory Standard Institute CLSI, [2009]), except that for Streptococcus strains lysed blood was substituted with 5% horse serum in the testing medium. […] The activities are expressed as minimum inhibitory concentrations (MICs) in units of μg·ml^−1. […] The organisms tested represented macrolide sensitive Gram‐positive pathogens that are mainly targeted by macrolide antibiotics. Tested streptococci were clinical isolates Streptococcus pneumoniae SP030 and Streptococcus pyogenes 3565 from internal strain collection, and other strains were obtained from ATCC bioresource centre, Staphylococcus aureus ATCC13709, Haemophilus influenzae ATCC49247, and Moraxella catarrhalis ATCC23246. Double dilutions of tested compounds were prepared using TECAN Genesis 150. Bacteria were grown on appropriate agar plates (Becton Dickinson, USA)—Columbia agar with 5% sheep blood for streptococci and M. catarrhalis, Mueller‐Hinton chocolate agar for H. influenzae , and Mueller‐Hinton agar for staphylococci.

[17] = system: S. aureus ATCC13709; experiment: Antibacterial screen, broth microdilution; type: cell-based; details: Staphylococcus aureus
Description: as §6

[18] = system: S. pneumoniae SP030; experiment: Antibacterial screen, broth microdilution; type: cell-based; details: Streptococcus pneumoniae
Description: as §6

[19] = system: S. pyogenes 3565; experiment: Antibacterial screen, broth microdilution; type: cell-based; details: Streptococcus pyogenes
Description: as §6

[20] = system: M. catarrhalis ATCC23246; experiment: Antibacterial screen, broth microdilution; type: cell-based, Moraxella catarrhalis
Description: as §6

[21] = Pharmacokinetic studies in CD-1 mice
Description: For pharmacokinetic (PK) studies in mice, animals were dosed either by intravenous (i.v.) or oral (p.o.) route. For i.v. administration, the dosing volume was 10 ml·kg^−1 for a total dose of 12.5 mg·kg^−1, and for p.o. administration, the dosing volume was 20 ml·kg^−1 for a total dose of 12.5 mg·kg^−1. Dosing solutions were prepared in 100% saline ([…]) both for i.v. and p.o. administration for all compounds with the exception of compound 4 for which dosing solutions were prepared in PBS with 5% Cremophor‐EL (Fluka). Following i.v. dosing, blood samples were collected at 5 and 15 min, 1, 3, 6, 8, 24, and 48 h post‐dose. Following oral dosing, blood samples were collected at 15 and 30 min, 1, 2, 4, 6, 8, 24, and 48 h post‐dose.
as §3, §4, §5

[22] = Swiss albino CD-1, mouse, whole blood, iv, 12.5 mg/kg

## CCN(CC)CCCC(C)Nc1ccnc2cc(Cl)ccc12 (stereo not drawn) [Chloroquine, reference compound]
[1]
  IC50: 313 nM
[2]
  IC50: 138 nM
[3]; DD2, 72 h, read-out: IC50 Dd2 (CQ,Q,PY,S)
  IC50: 356 nM
[4]
  IC50: 388 nM
[5]
  IC50: 178 nM
[6]
  IC50: 194 nM
[7]
  IC50: 3800 to 10600 nM
[8]; infected (I) humanized mice
  Cmax: 210 ng/mL
  Tmax: 2.33 h
  DNAUC(0–24): 200 (13) ng*h·ml^−1·mg^−1·kg^−1
[8]; uninfected (U) humanized mice
  Cmax: 72.3 ng/mL
  Tmax: 1.92 h
  DNAUC(0–24): 63 (23) ng*h·ml^−1·mg^−1·kg^−1
[9]; 100 mg·kg^−1, groups of three mice
  mice with no detectable parasitaemia at day 35: all mice
[9]; humanized mice, oral
  AUCED90 (daily molar exposure for 90% parasitaemia reduction): 3.1 μM·h^−1·day^−1
[10]
  IC50: 16 nM
[11]
  IC50: 431 nM

## CC[C@H]1OC(=O)[C@H](C)[C@@H](O[C@H]2C[C@@](C)(OC)[C@@H](O)[C@H](C)O2)[C@H](C)[C@@H](O[C@@H]2O[C@H](C)C[C@H](N(C)C(C)=O)[C@H]2O)[C@](C)(O)C[C@@H](C)CN(CCCNC(=O)Nc2ccc3ccccc3c2)[C@H](C)[C@@H](O)[C@]1(C)O [Compound 4]
[12]
  IC50: 13 nM
[13]
  IC50: 19 nM
[3]; Dd2 and Dd2(AZ^R), 48 versus 96 h
  Delayed death phenotype: No
[3]; DD2, 48 h, read-out: IC50 Dd2 48 h
  IC50: 65 nM
[3]; DD2, 96 h, read-out: IC50 Dd2 96 h
  IC50: 70 nM
[14]; DD2, 48 h, read-out: IC50 Dd2(AZ^R) 48 h
  IC50: 68 nM
[14]; DD2, 96 h, read-out: IC50 Dd2(AZ^R) 96 h
  IC50: 53 nM
[15]
  Tox50 HepG2: 38 µM
[7]
  IC50: 46300 nM
[7]; compared with compounds 1, 2, 3 and chloroquine
  weaker potency in haem polymerization: ~ 10 fold
[16]
  MIC: > 64 µg/mL
[17]
  MIC: > 64 µg/mL
[18]
  MIC: > 64 µg/mL
[19]
  MIC: > 64 µg/mL
[20]
  activity against M. catarrhalis (in words): only minor activity
[20]; Moraxella catarrhalis, ATCC23246, broth microdilution
  MIC: 32 µg/mL (≈ 32.3 µM)
[21]; CD‐1 mice, after oral administration
  B/P (ratio of AUC0−t in whole blood and plasma): 0.4
[21]; CD‐1 mice, blood, oral gavage 12.5 mg·kg^−1
  DNAUCPO (AUC0−t divided by the dose): 0.3 ng·kg·h/mL/mg
[21]; Swiss albino CD-1, mouse, whole blood, intravenous, 12.5 mg/kg
  half-life: 3.76 h
[21]; [22]
  Vd: 0.708 L/kg
  clearance: 14.8 mL/min/kg
[21]; Swiss albino CD-1, mouse, whole blood, po, 12.5 mg/kg, F, CD‐1 mice, 12.5 mg·kg^−1 i.v. and p.o.
  bioavailability: < 1%
